Here are results for 2 compounds from US20130116286A1, “DROXIDOPA AND PHARMACEUTICAL COMPOSITION THEREOF FOR THE TREATMENT OF NEURALLY MEDIATED HYPOTENSION” (Chelsea Therapeutics, Inc., priority 2007, published 2013).

Test [1] deals with MAO-A than MAO-B. Conditions: cited from earlier work.
For test [2], the system named is plasma norepinephrine. The test can be described thus: Plasma norepinephrine concentration after dosing with droxidopa or droxidopa combinations in rats. It is filed as in vivo, male Sprague Dawley rats. As to conditions: versus vehicle alone, 2 hours post-dosing, rat. As to the method: The pharmacokinetic properties of droxidopa combinations useful in the methods of the invention were evaluated in male Sprague Dawley rats.
Administration of droxidopa combinations was seen to affect plasma norepinephrine concentration in comparison to administration of droxidopa alone. Formulation 0 indicates administration of the vehicle alone without droxidopa or a droxidopa combination of the invention and provides a baseline comparative of plasma norepinephrine levels in an untreated subject.

Turning to `O=C(NCCN1CCOCC1)c1ccc(Cl)cc1` [moclobemide], the “selectivity for MAO-A than MAO-B” value in test [1] is “approximately three times more selective for MAO-A than MAO-B”. As to `NC(C(=O)O)C(O)c1ccc(O)c(O)c1` (stereo not drawn) [droxidopa, threo-3-(3,4-dihydroxyphenyl)serine], the “increase in plasma norepinephrine concentration” value in test [2] is listed as ~5 fold.
